Experiment [1] is described as follows: Cytotoxicity against human HCT116 cells assessed as inhibition of cell proliferation after 48 hrs by MTT assay. In kind it is functional, cell-based, HCT-116. (Tetrazolium assays rely on reduction of a dye to a coloured formazan, in cell work by metabolically active cells.)
Experiment [2] addresses T1, Tyrosinase (Agaricus bisporus) (UniProt O42713).
T1 sequence (whole entry): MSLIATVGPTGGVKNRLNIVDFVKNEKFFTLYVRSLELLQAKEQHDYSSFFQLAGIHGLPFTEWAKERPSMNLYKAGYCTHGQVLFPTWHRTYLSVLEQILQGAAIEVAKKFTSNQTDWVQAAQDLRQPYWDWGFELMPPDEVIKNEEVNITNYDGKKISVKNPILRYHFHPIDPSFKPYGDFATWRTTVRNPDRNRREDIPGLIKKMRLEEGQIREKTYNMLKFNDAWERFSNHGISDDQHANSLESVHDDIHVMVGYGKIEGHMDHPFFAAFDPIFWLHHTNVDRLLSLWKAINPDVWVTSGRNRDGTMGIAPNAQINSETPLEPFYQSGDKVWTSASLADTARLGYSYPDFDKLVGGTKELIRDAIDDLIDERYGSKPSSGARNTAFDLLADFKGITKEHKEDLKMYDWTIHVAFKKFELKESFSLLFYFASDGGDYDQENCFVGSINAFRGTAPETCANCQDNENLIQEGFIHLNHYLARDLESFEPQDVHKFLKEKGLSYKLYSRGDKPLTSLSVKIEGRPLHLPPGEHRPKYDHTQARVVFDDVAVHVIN
Put plainly: Inhibition of mushroom tyrosinase using L-tyrosine as substrate assessed as dopachrome formation at 100 uM measured for 10 mins by spectrophotometric method relative to control.

A further experiment concerns MCF7. Briefly: Cytotoxicity against human MCF7 cells assessed as inhibition of cell proliferation after 48 hrs by MTT assay. The class given is functional, cell-based.

Calls of active or inactive are those of the source. No cut-off for these calls is given here.

The term IC50 denotes the midpoint of a concentration-inhibition curve. `COc1ccc(P2(=S)NC(=S)C3=C(N2)Oc2c(c(=S)oc4ccccc24)C3c2ccccc2)cc1` (single isomer, unassigned; diastereomer 2) [listing 1 of 2 here]: in experiment [1] (hct-116), the IC50 stood at 68 µM. By inhibition is commonly meant the relative decrease from the control value, in per cent. As to `COc1ccc(P2(=S)NC(=S)C3=C(N2)Oc2c(c(=S)oc4ccccc24)C3c2ccc(Cl)cc2)cc1` (single isomer, unassigned; diastereomer 2) [listing 1 of 2 here], the inhibition in experiment [2] is 16.1%.

For `COc1ccc(P2(=S)NC(=S)C3=C(N2)Oc2c(c(=S)oc4ccccc24)C3c2ccc(C)cc2)cc1` (single isomer, unassigned; diastereomer 2) [listing 1 of 2 here], the IC50 worked out at 40 µM in the experiment with MCF7 (mcf7) and 37 µM in experiment [1] (hct-116). As for `CCCCOc1ccc(C2C3=C(NP(=S)(c4ccc(OC)cc4)NC3=S)Oc3c2c(=S)oc2ccccc32)cc1` (single isomer, unassigned; diastereomer 1) [listing 1 of 2 here], the IC50 with MCF7 (mcf7) was 37.2 µM; in experiment [1] (hct-116), 25.2 µM. For the compound `COc1ccc(P2(=S)NC(=S)C3=C(N2)Oc2c(c(=S)oc4ccccc24)C3c2ccc(C)cc2)cc1` (single isomer, unassigned; diastereomer 1) [listing 1 of 2 here], in experiment [2], the inhibition was determined as 58.5%.

For the compound `COc1ccc(P2(=S)NC(=S)C3=C(N2)Oc2c(c(=S)oc4ccccc24)C3c2ccc(Cl)cc2)cc1` (single isomer, unassigned; diastereomer 1) [listing 1 of 2 here], the IC50 worked out at 32 µM in the experiment on MCF7 (Homo sapiens, MCF7, 48 h) and 32 µM in experiment [1] (Homo sapiens, HCT-116, 48 h). For `CCCCOc1ccc(C2C3=C(NP(=S)(c4ccc(OC)cc4)NC3=S)Oc3c2c(=S)oc2ccccc32)cc1` (single isomer, unassigned; diastereomer 2) [listing 1 of 2 here], the values for the IC50 (in the experiment on MCF7 (mcf7); in experiment [1] (hct-116)) were above 100 µM and 56 µM, respectively. For `CCCCOc1ccc(C2C3=C(NP(=S)(c4ccc(OC)cc4)NC3=S)Oc3c2c(=S)oc2ccccc32)cc1` (single isomer, unassigned; diastereomer 2) [listing 2 of 2 here], the inhibition in experiment [2] was 88.7%. `COc1ccc(P2(=S)NC(=S)C3=C(N2)Oc2c(c(=S)oc4ccccc24)C3c2ccccc2)cc1` (single isomer, unassigned; diastereomer 2) [listing 2 of 2 here]: the inhibition result in experiment [2] is “inactive”. `COc1ccc(P2(=S)NC(=S)C3=C(N2)Oc2c(c(=S)oc4ccccc24)C3c2ccccc2)cc1` (single isomer, unassigned; diastereomer 1) [listing 1 of 2 here]: the inhibition result in experiment [2] was “inactive”. For `CCCCOc1ccc(C2C3=C(NP(=S)(c4ccc(OC)cc4)NC3=S)Oc3c2c(=S)oc2ccccc32)cc1` (single isomer, unassigned; diastereomer 1) [listing 2 of 2 here], the inhibition in experiment [2] was found to be 55%. Regarding `COc1ccc(P2(=S)NC(=S)C3=C(N2)Oc2c(c(=S)oc4ccccc24)C3c2ccccc2)cc1` (single isomer, unassigned; diastereomer 1) [listing 2 of 2 here], the IC50 in the experiment with MCF7 (Homo sapiens, MCF7, 48 h) is above 100 µM; in experiment [1] (Homo sapiens, HCT-116, 48 h), 71 µM. Take `COc1ccc(P2(=S)NC(=S)C3=C(N2)Oc2c(c(=S)oc4ccccc24)C3c2cccnc2)cc1` (stereo not given): the IC50 with MCF7 (Homo sapiens, MCF7, 48 h) is above 100 µM; in experiment [1] (Homo sapiens, HCT-116, 48 h), above 100 µM. Moreover, in experiment [2], the inhibition result is “inactive”.

In the case of `COc1ccc(P2(=S)NC(=S)C3=C(N2)Oc2c(c(=S)oc4ccccc24)C3c2ccc(C)cc2)cc1` (single isomer, unassigned; diastereomer 2) [listing 2 of 2 here], the inhibition in experiment [2] came out at 61.8%. Turning to `COc1ccc(C2C3=C(NP(=S)(c4ccc(OC)cc4)NC3=S)Oc3c2c(=S)oc2ccccc32)cc1` (single isomer, unassigned; diastereomer 1) [listing 1 of 2 here], the IC50 in the experiment with MCF7 (Homo sapiens, MCF7, 48 h) was above 100 µM; in experiment [1] (Homo sapiens, HCT-116, 48 h), 49 µM.

With `COc1ccc(P2(=S)NC(=S)C3=C(N2)Oc2c(c(=S)oc4ccccc24)C3c2ccc(OC)c(OC)c2)cc1` (single isomer, unassigned; diastereomer 1) [listing 1 of 2 here], the IC50 in the experiment on MCF7 (Homo sapiens, MCF7, 48 h) was above 100 µM; in experiment [1] (Homo sapiens, HCT-116, 48 h), above 100 µM. On to `COc1ccc(P2(=S)NC(=S)C3=C(N2)Oc2c(c(=S)oc4ccccc24)C3c2ccc(OC)c(OC)c2)cc1` (single isomer, unassigned; diastereomer 1) [listing 2 of 2 here], for which, in experiment [2], the inhibition result was “inactive”. For the compound `COc1ccc(P2(=S)NC(=S)C3=C(N2)Oc2c(c(=S)oc4ccccc24)C3c2ccc(Cl)cc2)cc1` (single isomer, unassigned; diastereomer 2) [listing 2 of 2 here], the IC50 in the experiment on MCF7 (mcf7) worked out at 33 µM; in experiment [1] (hct-116), 30 µM.

Regarding `COc1cccc2c1C(=O)c1c(O)c3c(c(O)c1C2=O)C[C@@](O)(C(=O)CO)C[C@@H]3O[C@H]1C[C@H](N)[C@H](O)[C@H](C)O1` [DOXORUBICIN], the IC50 with MCF7 (Homo sapiens, MCF7, 48 h) was 0.38 µM. Take `COc1ccc(C2C3=C(NP(=S)(c4ccc(OC)cc4)NC3=S)Oc3c2c(=S)oc2ccccc32)cc1` (single isomer, unassigned; diastereomer 1) [listing 2 of 2 here]: the inhibition entry in experiment [2] was “inactive”. Regarding `COc1ccc(P2(=S)NC(=S)C3=C(N2)Oc2c(c(=S)oc4ccccc24)C3c2ccc(Cl)cc2)cc1` (single isomer, unassigned; diastereomer 1) [listing 2 of 2 here], the inhibition in experiment [2] came to 80.7%. Consider `COc1ccc(C2C3=C(NP(=S)(c4ccc(OC)cc4)NC3=S)Oc3c2c(=S)oc2ccccc32)cc1` (single isomer, unassigned; diastereomer 2) [listing 1 of 2 here], for which the IC50 with MCF7 (mcf7) turned out to be 99 µM; in experiment [1] (hct-116), 31.6 µM.

Consider `COc1ccc(P2(=S)NC(=S)C3=C(N2)Oc2c(c(=S)oc4ccccc24)C3c2ccc(OC)c(OC)c2)cc1` (single isomer, unassigned; diastereomer 2), for which the inhibition in experiment [2] turned out to be 56.8%. For `COc1ccc(P2(=S)NC(=S)C3=C(N2)Oc2c(c(=S)oc4ccccc24)C3c2ccc(C)cc2)cc1` (single isomer, unassigned; diastereomer 1) [listing 2 of 2 here], the IC50 was above 100 µM with MCF7 (mcf7) and 48 µM in experiment [1] (Homo sapiens, HCT-116, 48 h).

As for `COc1ccc(P2(=S)NC(=S)C3=C(N2)Oc2c(c(=S)oc4ccccc24)C3c2ccccn2)cc1` (stereo not given), the IC50 is above 100 µM in the experiment with MCF7 (Homo sapiens, MCF7, 48 h) and above 100 µM in experiment [1] (Homo sapiens, HCT-116, 48 h). Further, the inhibition in experiment [2] was 97.4%.

Consider `COc1ccc(C2C3=C(NP(=S)(c4ccc(OC)cc4)NC3=S)Oc3c2c(=S)oc2ccccc32)cc1` (single isomer, unassigned; diastereomer 2) [listing 2 of 2 here], for which the inhibition in experiment [2] worked out at 68.8%.

These data come from ChEMBL document CHEMBL3792349, “Synthesis of novel diazaphosphinanes coumarin derivatives with promoted cytotoxic and anti-tyrosinase activities” (Bioorg Med Chem Lett, 2016).
